The nature of data set [1]: logP by HPLC on reversed-phase columns (C 18), EEC Directive 79/831 Annex V.A8. In kind it is physicochemical. The settings on record: reversed-phase HPLC column (C 18); method [a]: LC-MS, acidic range, pH 2.7, 0.1% aqueous formic acid and acetonitrile, linear gradient 10% to 95% acetonitrile. The method, then: The logP values were measured in accordance with EEC Directive 79/831 Annex V.A8 by HPLC (High Performance Liquid Chromatography) using reversed-phase columns (C 18) by the following methods: [a] The LC-MS determination in the acidic range is effected at pH 2.7 with 0.1% aqueous formic acid and acetonitile (contains 0.1% formic acid) as eluents; linear gradient from 10% acetonitrile to 95% acetonitrile.

The test system of a further data set is Alternaria solani. Description: Alternaria test (tomato)/protective. The data set is classed as in vivo. The settings on record: young tomato plants sprayed at 500 ppm, inoculated one day after treatment, evaluation 7 days after inoculation; 100% = no infection. As for the experimental part: Solvent: 49 parts by weight of N,N-dimethylformamide Emulsifier: 1 part by weight of alkylaryl polyglycol ether To produce an appropriate active ingredient formulation, 1 part by weight of active ingredient is mixed with the specified amounts of solvent and emulsifier, and the concentrate is diluted with water to the desired concentration. To test for protective activity, young tomato plants are sprayed with the active ingredient formulation at the stated application rate. One day after the treatment, the plants are inoculated with a spore suspension of Alternaria solani and are then left at 100% relative humidity and 22° C. for 24 h. The plants are then left at 96% relative air humidity and a temperature of 20° C. Evaluation follows 7 days after the inoculation. 0% means an efficacy which corresponds to that of the control, whereas an efficacy of 100% means that no infection is observed. In this test, the following inventive compounds, at an active ingredient concentration of 500 ppm, show an efficacy of 70% or more.

The next data set concerns Sphaerotheca fisliginea. The data set is described as follows: Sphaerotheca test (cucumber)/protective. The data set is classed as in vivo. The conditions noted are these: young cucumber plants sprayed at 500 ppm, inoculated one day after treatment, evaluation 7 days after inoculation; 100% = no infection. As for the experimental part: Solvent: 49 parts by weight of N,N-dimethylformamide
Emulsifier: 1 part by weight of alkylaryl polyglycol ether
To produce an appropriate active ingredient formulation, 1 part by weight of active ingredient is mixed with the specified amounts of solvent and emulsifier, and the concentrate is diluted with water to the desired concentration. To test for protective activity, young cucumber plants are sprayed with the formulation of active ingredient at the stated application rate. One day after the treatment, the plants are inoculated with a spore suspension of Sphaerotheca fisliginea. The plants are then placed in a greenhouse at 70% relative air humidity and a temperature of 23° C. Evaluation follows 7 days after the inoculation. 0% means an efficacy which corresponds to that of the control, whereas an efficacy of 100% means that no infection is observed. In this test, the following inventive compounds, at an active ingredient concentration of 500 ppm, show an efficacy of 70% or more.

`CC(C)(C)C(O)(COc1ccc(I)c(F)c1F)c1cncs1` (stereo not drawn) [Compound 1]: in data set [1], the chromatographic logP – broadly, a lipophilicity value derived from retention on a column – was 3.76. For the same molecule, the “Efficacy (%)” value in the data set on Alternaria solani is reported as 100%; in the data set on Sphaerotheca fisliginea, 94%.

For the origin of these results see US8450245B2, “Heterocyclic alkanol derivatives” (Bayer Intellectual Property GmbH, priority 2010, dated 2013).
